Assay results published in patent US20250381254A1, “Augmented Acid Alpha-Glucosidase For The Treatment Of Pompe Disease” (Amicus Therapeutics, Inc., priority 2015, published 2025).
Where two headings read alike, the source gives them in different places.

Legend:
[1] = Population PK model of miglustat, oral dosing in Gaa knockout mice; format: in vivo, mouse; conditions: typical value
Procedure: A population PK model of miglustat is constructed based on oral dosing in Gaa knockout (KO) mice. The model has a residual additive error of 0.475 ng/m L.

[2] = Clinical study: plasma miglustat PK; format: in vivo, human; conditions: for AUC0-∞/BW (geometric mean) / CL/F (arithmetic mean) / Cmax/BW (geometric mean) / βt1/2 (arithmetic mean) / AUC(0-t) / AUC(0-inf) / Cmax / Vd/F / Tmax: with 20 mg/kg ATB200; for AUC(0-t) / AUC(0-inf) / Cmax / Vd/F / Tmax: human, plasma, 20 mg/kg; for AUC(0-t): read-out: AUC0-t (geometric mean); for AUC(0-inf): read-out: AUC0-∞ (geometric mean); for Cmax: read-out: Cmax (geometric mean); for Vd/F: read-out: Vz/F (arithmetic mean); for Tmax: read-out: tmax (median)
Description: The study will be conducted in 2 stages.
• Safety: review of AEs, including SAEs and IARs; review of concomitant medications and nondrug therapies; vital signs (HR, RR, BP, and temperature); weight; PE; ECG; clinical safety laboratory assessments (serum chemistry, hematology, and urinalysis); and urine pregnancy test • PD: urinary Hex4 and serum CPK • Immunological: blood samples for anti-recombinant acid α-glucosidase antibody titers (anti-recombinant acid α-glucosidase total and neutralizing antibody titers, and antibody cross-reactivity with alglucosidase alfa) and blood samples for measurement of pro-inflammatory cytokines and other biomarkers of immune system activation. If needed, IgE measurements will also be performed. • Serial 24-hour PK: During Period 4 (Visit 6, Day 43 and Visit 8, Day 71) and Period 5 (Visit 9, Day 85 and Visit 11, Day 113), blood sampling for plasma acid α-glucosidase activity levels, total acid α-glucosidase protein concentrations, and miglustat concentrations will be taken for all subjects.
In Tables 12-15 and FIGS. 24-26, the single dose (SD) measurements were taken after a single administration of miglustat and ATB200, and the multiple dose (MD) measurements were taken after the third biweekly administration of miglustat and ATB200.

[3] = 130 mg miglustat, multiple dose
[4] = oral, 130 mg miglustat, multiple dose
[5] = oral, 130 mg miglustat, single dose
[6] = oral, 260 mg miglustat, single dose

CCCCN1C[C@H](O)[C@@H](O)[C@H](O)[C@H]1CO [miglustat, (2R,3R,4R,5S)-1-butyl-2-(hydroxymethyl)piperidine-3,4,5-triol]
Central volume of distribution (Vc) [1]: 4.55 mL | Peripheral clearance (CLd) [1]: 4.57 mL/h | Peripheral volume of distribution (V2) [1]: 19.6 mL | Rate constant of absorption (Ka) [1]: 2.09 h⁻¹ | Systemic clearance (CL) [1]: 43.3 mL/h | dose proportionality of kinetics ([2]; 130 mg and 260 mg): dose-proportional kinetics | AUC0-∞/BW (geometric mean) [2, 3]: 142 ng·h/mL/kg | CL/F (arithmetic mean) [2, 3]: 10.8 L/h | Cmax/BW (geometric mean) [2, 3]: 16.3 ng/mL/kg | βt1/2 (arithmetic mean) [2, 3]: 5.6 h | AUC0-∞/BW (geometric mean) ([2]; 130 mg miglustat, single dose): 154 ng·h/mL/kg | CL/F (arithmetic mean) ([2]; 130 mg miglustat, single dose): 9.93 L/h | Cmax/BW (geometric mean) ([2]; 130 mg miglustat, single dose): 19.2 ng/mL/kg | βt1/2 (arithmetic mean) ([2]; 130 mg miglustat, single dose): 4.5 h | AUC0-∞/BW (geometric mean) ([2]; 260 mg miglustat, single dose): 325 ng·h/mL/kg | CL/F (arithmetic mean) ([2]; 260 mg miglustat, single dose): 9.51 L/h | Cmax/BW (geometric mean) ([2]; 260 mg miglustat, single dose): 41.5 ng/mL/kg | βt1/2 (arithmetic mean) ([2]; 260 mg miglustat, single dose): 5.5 h | AUC(0-t) [2, 4]: 11500 ng·h/mL | AUC(0-inf) [2, 4]: 12200 ng·h/mL | Cmax [2, 4]: 1390 ng/mL | Vd/F [2, 4]: 88.1 L | Tmax [2, 4]: 3 h | AUC(0-t) [2, 5]: 12600 ng·h/mL | AUC(0-inf) [2, 5]: 13200 ng·h/mL | Cmax [2, 5]: 1650 ng/mL | Vd/F [2, 5]: 65.4 L | Tmax [2, 5]: 2.75 h | AUC(0-t) [2, 6]: 26600 ng·h/mL | AUC(0-inf) [2, 6]: 28000 ng·h/mL | Cmax [2, 6]: 3550 ng/mL | Vd/F [2, 6]: 79.2 L | Tmax [2, 6]: 2.75 h | time of peak plasma concentrations into the ATB200 infusion ([2]; oral, 1 hour prior to ATB200 infusion): 2 h
